From patent publication US20250296971A1, “GASTRIC INHIBITORY PEPTIDE RECEPTOR LIGANDS” (priority 2021, published 2025)
*1 amine or outer side, *2 acyl side, *3 side chain or, on linkers, in order; H or OH if unused. Where a SMILES comes first, the peptide text is derived from it. Bridges are numbered along the chain shown (N, C = ends). [ ]: non-standard residue; d: D form. Trp(5-Cl) = N[C@@H](Cc1c[nH]c2ccc(Cl)cc12)C(=O)O; Phe(3,4-Cl2) = N[C@@H](Cc1ccc(Cl)c(Cl)c1)C(=O)O; Pyridine(2,6-diCH2) = c1cc(C[*:1])nc(C[*:2])c1; Phe(2,4-Cl2) = N[C@@H](Cc1ccc(Cl)cc1Cl)C(=O)O; Nip(3R) = O=C([C@@H]1CCCN([*:1])C1)[*:2]; Oic = O=C(O)[C@@H]1C[C@@H]2CCCC[C@@H]2N1; Phe(4-Cl) = N[C@@H](Cc1ccc(Cl)cc1)C(=O)O; Phe(2-Cl) = N[C@@H](Cc1ccccc1Cl)C(=O)O; 1Nal = N[C@@H](Cc1cccc2ccccc12)C(=O)O; mXylylene = c1cc(C[*:1])cc(C[*:2])c1; Hyp = O=C(O)[C@@H]1C[C@@H](O)CN1; 2Thi = N[C@@H](Cc1cccs1)C(=O)O; Cit = NC(=O)NCCC[C@H](N)C(=O)O; Nle = CCCC[C@H](N)C(=O)O; Thp = NC1(C(=O)O)CCOCC1; Dap = NC[C@H](N)C(=O)O; Aib = CC(C)(N)C(=O)O

Molecular target: T1, GIPR (CHO-K1-hGIPR cells) (Homo sapiens, UniProt P48546)
T1 construct: host or cells: CHO-K1
T1 sequence (P48546 22-466): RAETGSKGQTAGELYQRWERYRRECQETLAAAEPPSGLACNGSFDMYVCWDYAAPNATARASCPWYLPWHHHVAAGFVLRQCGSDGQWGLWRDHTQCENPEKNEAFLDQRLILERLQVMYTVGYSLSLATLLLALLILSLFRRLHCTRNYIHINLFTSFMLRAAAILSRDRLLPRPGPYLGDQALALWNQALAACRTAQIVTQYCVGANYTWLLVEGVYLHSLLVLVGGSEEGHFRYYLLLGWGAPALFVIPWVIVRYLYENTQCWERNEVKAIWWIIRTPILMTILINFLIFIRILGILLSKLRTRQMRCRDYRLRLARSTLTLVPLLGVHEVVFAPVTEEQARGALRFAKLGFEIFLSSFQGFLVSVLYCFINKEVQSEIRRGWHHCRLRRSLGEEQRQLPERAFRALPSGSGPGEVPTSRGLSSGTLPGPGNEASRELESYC
Experiment: FACS binding assay
Conditions: competition with 20 nM GIP-057, 4° C. for 1 hour, read-out: pIC50 Category (converted)
How it was run: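 Median fluorescence in the APC channel, measured on washed CHO-K1 cells overexpressing human GIPR, was fitted by four-parameter logistic regression against peptide concentration to yield EC50 or IC50 values. Secondary labelling used APC-streptavidin (1 μg/mL, 30 min, ice).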

SMILES | IC50
CC[C@H](C)[C@@H]1NC(=O)[C@H](CC(C)C)NC(=O)C(C)(C)NC(=O)[C@@H](NC(=O)[C@H](CC(C)C)NC(=O)[C@H](CCC(=O)O)NC(=O)[C@@H]2CCCN(C(=O)[C@H](Cc3cccc4ccccc34)NC(=O)[C@H](Cc3c[nH]c4ccccc34)NC(=O)[C@H](CC(=O)O)NC(C)=O)C2)CSCc2cccc(c2)CSC[C@@H](C(N)=O)NC1=O [GIP-342, Ac-Asp-Trp-1Ni-Rni-Glu-Leu-[Cys(3MeBn)-Aib-Leu-Ile-Cys]-NH2] (Ac-DW[1Nal][Nip(3R)]ELC[Aib]LIC-NH2; linker 7-11 via mXylylene) | > 1000 nM
CC[C@H](C)[C@@H]1NC(=O)[C@H](CC(C)C)NC(=O)C(C)(C)NC(=O)[C@@H](NC(=O)[C@H](Cc2cccs2)NC(=O)[C@H](CCC(=O)O)NC(=O)[C@@H]2CCCN2C(=O)[C@H](Cc2cccc3ccccc23)NC(=O)[C@H](Cc2c[nH]c3ccccc23)NC(=O)[C@H](CC(=O)O)NC(C)=O)CSCc2cccc(c2)CSC[C@@H](C(N)=O)NC1=O [GIP-343, Ac-Asp-Trp-1Ni-Pro-Glu-Thi-[Cys(3MeBn)-Aib-Leu-Ile-Cys]-NH2] (Ac-DW[1Nal]PE[2Thi]C[Aib]LIC-NH2; linker 7-11 via mXylylene) | > 1000 nM
CC[C@H](C)[C@@H]1NC(=O)[C@H](CC(C)C)NC(=O)C(C)(C)NC(=O)[C@@H](NC(=O)[C@H](Cc2ccccc2)NC(=O)[C@H](CCC(=O)O)NC(=O)[C@@H]2CCCN2C(=O)[C@H](Cc2cccc3ccccc23)NC(=O)[C@H](Cc2c[nH]c3ccccc23)NC(=O)[C@H](CC(=O)O)NC(C)=O)CSCc2cccc(c2)CSC[C@@H](C(N)=O)NC1=O [GIP-344, Ac-Asp-Trp-1Ni-Pro-Glu-Phe-[Cys(3MeBn)-Aib-Leu-Ile-Cys]-NH2] (Ac-DW[1Nal]PEFC[Aib]LIC-NH2; linker 7-11 via mXylylene) | > 1000 nM
CC[C@H](C)[C@@H]1NC(=O)[C@H](CC(C)C)NC(=O)C(C)(C)NC(=O)[C@@H](NC(=O)[C@H](CCCCN)NC(=O)[C@H](CCC(=O)O)NC(=O)[C@@H]2CCCN2C(=O)[C@H](Cc2cccc3ccccc23)NC(=O)[C@H](Cc2c[nH]c3ccccc23)NC(=O)[C@H](CC(=O)O)NC(C)=O)CSCc2cccc(c2)CSC[C@@H](C(N)=O)NC1=O [GIP-345, Ac-Asp-Trp-1Ni-Pro-Glu-Lys-[Cys(3MeBn)-Aib-Leu-Ile-Cys]-NH2] (Ac-DW[1Nal]PEKC[Aib]LIC-NH2; linker 7-11 via mXylylene) | > 1000 nM
CCCC[C@H](NC(=O)[C@H](CCC(=O)O)NC(=O)[C@@H]1CCCN1C(=O)[C@H](Cc1cccc2ccccc12)NC(=O)[C@H](Cc1c[nH]c2ccccc12)NC(=O)[C@H](CC(=O)O)NC(C)=O)C(=O)N[C@H]1CSCc2cccc(c2)CSC[C@@H](C(N)=O)NC(=O)[C@H]([C@@H](C)CC)NC(=O)[C@H](CC(C)C)NC(=O)C(C)(C)NC1=O [GIP-346, Ac-Asp-Trp-1Ni-Pro-Glu-Nle-[Cys(3MeBn)-Aib-Leu-Ile-Cys]-NH2] (Ac-DW[1Nal]PE[Nle]C[Aib]LIC-NH2; linker 7-11 via mXylylene) | > 1000 nM
CC[C@H](C)[C@@H]1NC(=O)[C@H](CC(C)C)NC(=O)C(C)(C)NC(=O)[C@@H](NC(=O)[C@H](CCCNC(N)=O)NC(=O)[C@H](CCC(=O)O)NC(=O)[C@@H]2CCCN2C(=O)[C@H](Cc2cccc3ccccc23)NC(=O)[C@H](Cc2c[nH]c3ccccc23)NC(=O)[C@H](CC(=O)O)NC(C)=O)CSCc2cccc(c2)CSC[C@@H](C(N)=O)NC1=O [GIP-347, Ac-Asp-Trp-1Ni-Pro-Glu-Cit-[Cys(3MeBn)-Aib-Leu-Ile-Cys]-NH2] (Ac-DW[1Nal]PE[Cit]C[Aib]LIC-NH2; linker 7-11 via mXylylene) | > 1000 nM
CC[C@H](C)[C@@H]1NC(=O)[C@H](CC(C)C)NC(=O)C(C)(C)NC(=O)[C@@H](NC(=O)[C@H](CNC(C)=O)NC(=O)[C@H](CCC(=O)O)NC(=O)[C@@H]2CCCN2C(=O)[C@H](Cc2cccc3ccccc23)NC(=O)[C@H](Cc2c[nH]c3ccccc23)NC(=O)[C@H](CC(=O)O)NC(C)=O)CSCc2cccc(c2)CSC[C@@H](C(N)=O)NC1=O [GIP-348, Ac-Asp-Trp-1Ni-Pro-Glu-Dap(Ac)-[Cys(3MeBn)-Aib-Leu-Ile-Cys]-NH2] (Ac-DW[1Nal]PE[Dap](Ac)C[Aib]LIC-NH2; linker 7-11 via mXylylene) | > 1000 nM
CC[C@H](C)[C@@H]1NC(=O)[C@H](CC(C)C)NC(=O)C2(CCOCC2)NC(=O)[C@@H](NC(=O)[C@@H](CC(C)C)NC(=O)[C@H](CCC(=O)O)NC(=O)[C@@H]2C[C@@H](O)CN2C(=O)[C@H](Cc2ccccc2Cl)NC(=O)[C@H](Cc2c[nH]c3ccccc23)NC(=O)[C@H](CC(=O)O)NC(C)=O)CSCc2cccc(n2)CSC[C@@H](C(N)=O)NC1=O [GIP-349, Ac-Asp-Trp-Ocf-Hyp-Glu-leu-[Cys(2Lut)-Thp-Leu-Ile-Cys]-NH2] (Ac-DW[Phe(2-Cl)][Hyp]E[dL]C[Thp]LIC-NH2; linker 7-11 via Pyridine(2,6-diCH2)) | > 1000 nM
CC[C@H](C)[C@@H]1NC(=O)[C@H](CC(C)C)NC(=O)C2(CCOCC2)NC(=O)[C@@H](NC(=O)[C@@H](CC(C)C)NC(=O)[C@H](CCC(=O)O)NC(=O)[C@@H]2C[C@@H](O)CN2C(=O)[C@H](Cc2ccc(Cl)cc2)NC(=O)[C@H](Cc2c[nH]c3ccccc23)NC(=O)[C@H](CC(=O)O)NC(C)=O)CSCc2cccc(n2)CSC[C@@H](C(N)=O)NC1=O [GIP-350, Ac-Asp-Trp-Pcf-Hyp-Glu-leu-[Cys(2Lut)-Thp-Leu-Ile-Cys]-NH2] (Ac-DW[Phe(4-Cl)][Hyp]E[dL]C[Thp]LIC-NH2; linker 7-11 via Pyridine(2,6-diCH2)) | > 1000 nM
CC[C@H](C)[C@@H]1NC(=O)[C@H](CC(C)C)NC(=O)C2(CCOCC2)NC(=O)[C@@H](NC(=O)[C@@H](CC(C)C)NC(=O)[C@H](CCC(=O)O)NC(=O)[C@@H]2C[C@@H](O)CN2C(=O)[C@H](Cc2ccc(Cl)cc2Cl)NC(=O)[C@H](Cc2c[nH]c3ccccc23)NC(=O)[C@H](CC(=O)O)NC(C)=O)CSCc2cccc(n2)CSC[C@@H](C(N)=O)NC1=O [GIP-351, Ac-Asp-Trp-Egm-Hyp-Glu-leu-[Cys(2Lut)-Thp-Leu-Ile-Cys]-NH2] (Ac-DW[Phe(2,4-Cl2)][Hyp]E[dL]C[Thp]LIC-NH2; linker 7-11 via Pyridine(2,6-diCH2)) | > 1000 nM
CC[C@H](C)[C@@H]1NC(=O)[C@H](CC(C)C)NC(=O)C2(CCOCC2)NC(=O)[C@@H](NC(=O)[C@@H](CC(C)C)NC(=O)[C@H](CCC(=O)O)NC(=O)[C@@H]2C[C@@H](O)CN2C(=O)[C@H](Cc2ccccc2)NC(=O)[C@H](Cc2c[nH]c3ccccc23)NC(=O)[C@H](CC(=O)O)NC(C)=O)CSCc2cccc(n2)CSC[C@@H](C(N)=O)NC1=O [GIP-352, Ac-Asp-Trp-Phe-Hyp-Glu-leu-[Cys(2Lut)-Thp-Leu-Ile-Cys]-NH2] (Ac-DWF[Hyp]E[dL]C[Thp]LIC-NH2; linker 7-11 via Pyridine(2,6-diCH2)) | > 1000 nM
CC(=O)N[C@@H](CC(=O)O)C(=O)N[C@@H](Cc1c[nH]c2ccccc12)C(=O)N[C@@H](Cc1c[nH]c2ccc(Cl)cc12)C(=O)N1C[C@H](O)C[C@H]1C(=O)N[C@@H](CCC(=O)O)C(=O)N[C@H](CC(C)C)C(=O)N[C@H]1CSCc2cccc(n2)CSC[C@@H](C(N)=O)NC(=O)[C@H](CCCNC(=N)N)NC(=O)[C@H](CC(C)C)NC(=O)C2(CCOCC2)NC1=O [GIP-353, Ac-Asp-Trp-5Clw-Hyp-Glu-leu-[Cys(2Lut)-Thp-Leu-Arg-Cys]-NH2] (Ac-DW[Trp(5-Cl)][Hyp]E[dL]C[Thp]LRC-NH2; linker 7-11 via Pyridine(2,6-diCH2)) | > 1000 nM
CC(=O)N[C@@H](CC(=O)O)C(=O)N[C@@H](Cc1c[nH]c2ccccc12)C(=O)N[C@@H](Cc1c[nH]c2ccc(Cl)cc12)C(=O)N1C[C@H](O)C[C@H]1C(=O)N[C@@H](CCC(=O)O)C(=O)N[C@H](CC(C)C)C(=O)N[C@H]1CSCc2cccc(n2)CSC[C@@H](C(N)=O)NC(=O)[C@H](CCC(=O)O)NC(=O)[C@H](CC(C)C)NC(=O)C2(CCOCC2)NC1=O [GIP-354, Ac-Asp-Trp-5Clw-Hyp-Glu-leu-[Cys(2Lut)-Thp-Leu-Glu-Cys]-NH2] (Ac-DW[Trp(5-Cl)][Hyp]E[dL]C[Thp]LEC-NH2; linker 7-11 via Pyridine(2,6-diCH2)) | > 1000 nM
CC(=O)N[C@@H](CC(=O)O)C(=O)N[C@@H](Cc1c[nH]c2ccccc12)C(=O)N[C@@H](Cc1c[nH]c2ccc(Cl)cc12)C(=O)N1C[C@H](O)C[C@H]1C(=O)N[C@@H](CCC(=O)O)C(=O)N[C@H](CC(C)C)C(=O)N[C@H]1CSCc2cccc(n2)CSC[C@@H](C(N)=O)NC(=O)[C@H](Cc2c[nH]c3ccccc23)NC(=O)[C@H](CC(C)C)NC(=O)C2(CCOCC2)NC1=O [GIP-355, Ac-Asp-Trp-5Clw-Hyp-Glu-leu-[Cys(2Lut)-Thp-Leu-Trp-Cys]-NH2] (Ac-DW[Trp(5-Cl)][Hyp]E[dL]C[Thp]LWC-NH2; linker 7-11 via Pyridine(2,6-diCH2)) | > 1000 nM
CC[C@H](C)[C@@H]1NC(=O)[C@H](CC(C)C)NC(=O)C2(CCOCC2)NC(=O)[C@@H](NC(=O)[C@@H](CC(C)C)NC(=O)[C@H](CCC(=O)O)NC(=O)[C@@H]2C[C@@H]3CCCC[C@@H]3N2C(=O)[C@H](Cc2ccc(Cl)c(Cl)c2)NC(=O)[C@H](Cc2ccc(Cl)c(Cl)c2)NC(=O)[C@H](CC(=O)O)NC(C)=O)CSCc2cccc(n2)CSC[C@@H](C(N)=O)NC1=O [GIP-356, Ac-Asp-Eaa-Eaa-Oic-Glu-leu-[Cys(2Lut)-Thp-Leu-Ile-Cys]-NH2] (Ac-D[Phe(3,4-Cl2)][Phe(3,4-Cl2)][Oic]E[dL]C[Thp]LIC-NH2; linker 7-11 via Pyridine(2,6-diCH2)) | > 1000 nM
